According to patent US9259426B2, “4,6-di- and 2,4,6-trisubstituted quinazoline derivatives useful for treating viral infections” (Gilead Sciences, Inc., priority 2006, dated 2016):

Legend:
[1] = system: HCV replicon in human hepatoma Huh-7 cell line; test: Anti-HCV replicon assay (EC50, luciferase readout); type: cell-based; conditions: Hepatitis C virus, Huh-7, 72 h, read-out: EC50 (50% effective concentration)
Description: (§1) The anti HCV activity of the quinazoline derivatives of this invention was tested in a human hepatoma Huh-7 cell line harbouring a HCV replicon. The assay comprised the following steps:
(§2) Step 1: compound preparation and serial dilution
(§3) • 1. for water soluble quinazoline derivatives, a volume of 500 μL of solution in cell media (DMEM, 10% FBS, P/S, L-Glutamine) was prepared with a concentration being twice the concentration of the starting final serial dilution concentration. A volume of 150 μL of the solution was added to the pre-specified wells in column 1 of a 96-well cell culture plate (PerkinElmer, white plate, cat. #6005181, for EC50 assay; black plate, cat. #6005182 for CC50 assay). The rest of the plate, columns 2-12, was filled with 100 μL of cell media. The plate was then placed on a Precision 2000 Workstation to start the serial dilution. Compounds were diluted three times each step from column 1 to column 10. Column 11 was used as a blank control (no compound added). • 2. for quinazoline derivatives requiring DMSO to dissolve, serial dilution is performed in 50% DMSO in a 384-well plate. A solution containing a compound at 100-fold concentration of the starting final serial dilution concentration was prepared in 50% DMSO and added to the pre-specified wells in column 1 of a polypropylene 384-well plate. The plate was then placed on a Precision 2000 Workstation to start the serial dilution. After the serial dilution, a volume of 2 μL of the solution was transferred from the 384-well plate to a 96-well cell culture plate containing 100 μL of cell media on a Biomek FX Workstation. The DMSO concentration in the final assay condition was 0.5% after cells are added to the plate and the total volume in each well is brought to 200 μL. Step 2: to each well of the serial dilution plate prepared above, 100 μL of cell media containing 6000 suspended Huh-7 HCV replicon cells was added with a Multidrop workstation. The plates were incubated for 3 days at 37° C. with 5% CO2. Step 3: Detection: • a) for the EC50 assay, the media in a 96-well cell culture plate was aspirated with a Biotek EL405 plate-washer. A volume of 200 μL of a solution containing a 1:1 mixture of cell-lysis buffer (Promega, Luciferase Cell Culture Lysis 5× Reagent, cat. #E1531) and luciferase substrate solution (Promega, Luciferase Assay, cat.# E4550) was added to each well of the plate with Multidrop. The plate was incubated for 30 minutes at room temperature before the luminescence signal was measured with a TopCount plate-reader. • b) for the CC50 assay, a volume of 100 μL of pre-mixed CeliTiter-Glo (Promega, cat.# G7572) solution is added directly to the cell culture in each well of the plate and the luminescence signal is measured with a TopCount plate-reader after 10 minutes of incubation at room temperature.
(§4) Results in the table below are expressed by the following data: • the 50% cytostatic concentration (CC50), i.e. the concentration that results in 50% inhibition of cell growth, and • the 50% effective concentration (EC50), i.e. the concentration that protects 50% of the cell monolayer from virus-induced cytopathic effect.

[2] = CC50 assay (CellTiter-Glo) in Huh-7 HCV replicon cells; type: cell-based, human; conditions: human, 3 days incubation, CellTiter-Glo luminescence, read-out: CC50 (50% cytostatic concentration)
Description: as §1, §2, §3, §4

Huh-7 HCV replicon cells = test: as above; type: cell-based, human; conditions: 3 days incubation, CellTiter-Glo luminescence, read-out: CC50 (50% cytostatic concentration)
Description: as §1, §2, §3, §4

SMILES	EC50 [1] [µM]	CC50 at 3 days [2] [µM]	CC50 (Huh-7 HCV replicon cells) [µM]
COc1ccc(-c2ccc3nc(N)nc(N4CCOCC4)c3c2)cc1OC [Example 14, 2-amino-6-(3,4-dimethoxyphenyl)-4-(N-morpholino)quinazoline]	< 0.3	< 10	–
COc1ccc(-c2ccc3nc(N)nc(Nc4cccc(Br)c4)c3c2)cc1OC [Example 16, 2-amino-6-(3,4-dimethoxyphenyl)-4-[N-(3-bromo)-anilino]-quinazoline]	< 0.3	> 20	–
Nc1nc(N2CCOCC2)c2cc(-c3ccc(Cl)cc3)ccc2n1 [Example 27, 2-amino-6-(4-chlorophenyl)-4-(N-morpholino)-quinazoline]	0.3 to 1	10 to 20	–
Nc1nc(N2CCOCC2)c2cc(-c3ccc(F)cc3)ccc2n1 [Example 28, 2-amino-6-(4-fluorophenyl)-4-(N-morpholino)-quinazoline]	0.3 to 1	< 10	–
CC(=O)Nc1ccc(-c2ccc3nc(N)nc(N4CCOCC4)c3c2)cc1 [Example 30, 2-amino-6-(4-acetamidophenyl)-4-(N-morpholino)quinazoline]	1 to 10	10 to 20	–
CC(=O)Nc1ccc(-c2ccc3nc(N)nc(N4CCCCC4)c3c2)cc1 [Example 31, 2-amino-6-(4-acetamidophenyl)-4-(N-piperidino)quinazoline]	1 to 10	10 to 20	–
CC(=O)Nc1ccc(-c2ccc3nc(N)nc(N4CCN(C(C)=O)CC4)c3c2)cc1 [Example 32, 2-amino-6-(4-acetamidophenyl)-4-(N-acetylpiperazino)quinazoline]	1 to 10	> 20	–
CC(=O)Nc1ccc(-c2ccc3nc(N)nc(N4CCN(C)CC4)c3c2)cc1 [Example 34, 2-amino-6-(4-acetamidophenyl)-4-(N-methylpiperazino)quinazoline]	1 to 10	10 to 20	–
Fc1ccc(-c2ccc3ncnc(N4CCOCC4)c3c2)cc1 [Example 37, 6-(4-fluorophenyl)-4-(N-morpholino)-quinazoline]	1 to 10	> 20	–
Nc1ncnc2ccc(-c3ccc(F)cc3)cc12 [Example 39, 4-amino-6-(4-fluorophenyl)-quinazoline]	1 to 10	> 20	–
CCCNc1ncnc2ccc(-c3ccc(F)cc3)cc12 [Example 43, 4-(N-propylamino)-6-(4-fluorophenyl)-quinazoline]	1 to 10	> 20	–
CN(C)c1ncnc2ccc(-c3ccc(F)cc3)cc12 [Example 45, 4-(N,N-dimethylamino)-6-(4-fluorophenyl)-quinazoline]	1 to 10	> 20	–
Fc1ccc(-c2ccc3ncnc(NC4CC4)c3c2)cc1 [Example 47, 4-(N-cyclopropylamino)-6-(4-fluorophenyl)-quinazoline]	1 to 10	> 20	–
Nc1nc(Nc2ccccc2)c2cc(-c3ccc(F)cc3)ccc2n1 [Example 48, 2-amino-6-(4-fluorophenyl)-4-(N-anilino)-quinazoline]	0.3 to 1	< 10	–
NS(=O)(=O)c1ccc(CNc2nc(NCC(F)(F)F)c3cc(-c4ccc(C(=O)NC5CC5)cc4)ccc3n2)cc1 [Example 51, N-Cyclopropyl-4-[2-(4-sulfamoyl-benzylamino)-4-(2,2,2-trifluoroethylamino)-quinazolin-6-yl]-benzamide]	< 0.3	> 20	–
NS(=O)(=O)c1ccc(CNc2nc(NCC(F)(F)F)c3cc(-c4ccc(F)cc4)ccc3n2)cc1 [Example 52, 4-{[6-(4-Fluoro-phenyl)-4-(2,2,2-trifluoro-ethylamino)quinazolin-2-ylamino]-methyl}-benzenesulfonamide]	< 0.3	< 10	–
Cn1ccc(Nc2nc(NC3CC3)c3cc(-c4ccc(F)cc4)ccc3n2)n1 [Example 54, N4-cyclopropyl-6-(4-fluoro-phenyl)-N2-(1-methyl-1H-pyrazol-3-yl)-quinazoline-2,4-diamine]	< 0.3	< 10	–
COCCNc1nc(N)nc2ccc(-c3ccc(C(=O)NC4CC4)cc3)cc12 [Example 56, 4-[2-Amino-4-(2-methoxy-ethylamino)-quinazolin-6-yl]-N cyclopropyl-benzamide]	–	–	> 20
